A short description of the assay: Positive allosteric modulator pEC50 values and antagonist pIC50 values for each compound were then determined. […] Data analysis was carried out using a 4 parameter logistic nonlinear regression model with the XLFIT (IDBS) excel add-in10. 1-10 Examples 76-80 and 82-89 were tested in a slightly modified procedure. The points of modification and the alternate reagents, concentrations or equipment employed in these examples were: 1200 μg/ml hygromycin B; 2G418 not added; 3CELLBANKER 1; 410E6; 5 40 μl; 6 1 in 99; 7 20 μl; 8FDSS6000 (Hamamatsu Photonics); 9(480Ex, 540Em); 10Spotfire (TIBCO).As measured by the above in vitro assay, compound Examples 1 to 105 are positive allosteric modulators of mAChR M1 displaying the pEC50 values for positive allosteric modulation given in Table 2. Conditions: 0.5 h.

pEC50: −log10 of the molar value.

With `COc1ccc(Cn2cc(C(=O)NC3CCOC[C@@H]3O)c3nccc(C)c32)cc1` (stereo partly specified), the pEC50 was 8.00.

In the case of `COc1ccc(Cn2cc(C(=O)NC3CCOC[C@@H]3O)c3nccc(C)c32)cc1F` (stereo partly specified), the pEC50 is 7.90.

With `COc1cc(Cn2cc(C(=O)NC3CCOC[C@@H]3O)c3nccc(C)c32)ccn1` (stereo partly specified), the pEC50 was 7.30.

Consider `COc1ccc(Cn2cc(C(=O)NC3CCOC[C@@H]3O)c3nccc(Cl)c32)cc1` (stereo partly specified), for which the pEC50 was 7.90.

For the molecule `O=C(NC1CCC(F)(F)C[C@H]1O)c1cn(Cc2ccc(F)cc2)c2cccnc12` (stereo partly specified), the pEC50 was 6.10.

As for `Cc1ccnc2c(C(=O)NC3CCOC[C@@H]3O)cn(Cc3ccc(F)cc3)c12` (stereo partly specified), the pEC50 was 7.80.

One may read the pEC50 as −log10 of the EC50, conventionally taken in molar units.

The values are drawn from ChEMBL document CHEMBL5725623, “4-azaindole derivatives” (2018).
